Where a SMILES comes first, the peptide text is derived from it. [ ]: non-standard residue; d: D form. d2Nal = N[C@H](Cc1ccc2ccccc2c1)C(=O)O; Aib = CC(C)(N)C(=O)O
Columns and labels:
Sus scrofa [1] = test: Release of growth hormone at single iv dose of 50 nmol/kg in pigs; format: functional
Rattus norvegicus [2] = species: Rattus norvegicus; test: Efficacy was determined as percent of GHRP-6 in rat pituitary cell assay tested in vitro; format: functional; settings: Pituitary gland cell
Rattus norvegicus [3] = species: Rattus norvegicus; test: Concentration required for GH release from isolated pituitary cells of rat tested in vitro; format: functional, cell-based; settings: Pituitary gland cell
Sus scrofa [4] = test: Effective dose required for release of GH from pigs in vivo; format: functional

SMILES | GHmax (Sus scrofa [1]) | Emax (Rattus norvegicus [2]) | EC50 (Rattus norvegicus [3]) | ED50 (Sus scrofa [4])
CC(=O)NCCCCCNC(=O)[C@H](Cc1ccccc1)N(C)C(=O)[C@H](Cc1ccc2ccccc2c1)N(C)C(=O)/C=C/CC(C)(C)N | 26 ng/mL | 110% | 10 nM | –
CN(C)CCCN(C)C(=O)[C@H](Cc1ccccc1)N(C)C(=O)[C@H](Cc1ccc2ccccc2c1)N(C)C(=O)/C=C/CC(C)(C)N | 45 ng/mL | 105% | 2 nM | –
CN(C)C(=O)CCCN(C)C(=O)[C@H](Cc1ccccc1)N(C)C(=O)[C@H](Cc1ccc2ccccc2c1)N(C)C(=O)/C=C/CC(C)(C)N | 21 ng/mL | 105% | 21 nM | –
CCNC(=O)NCCCCCNC(=O)[C@H](Cc1ccccc1)N(C)C(=O)[C@H](Cc1ccc2ccccc2c1)N(C)C(=O)/C=C/CC(C)(C)N | 8 ng/mL | 95% | 14 nM | –
CN(C(=O)/C=C/CC(C)(C)N)[C@@H](Cc1ccc2ccccc2c1)C(=O)N(C)[C@@H](Cc1ccccc1)C(=O)N[C@@H](CCCCN)C(N)=O | 76 ng/mL | 105% | 1.8 nM | –
CN(C)C(=O)[C@H](CCCCN)NC(=O)[C@H](Cc1ccccc1)N(C)C(=O)[C@H](Cc1ccc(-c2ccccc2)cc1)N(C)C(=O)/C=C/CC(C)(C)N | 116 ng/mL | 110% | 0.15 nM | –
CN(C(=O)/C=C/CC(C)(C)N)[C@@H](Cc1ccc(-c2ccccc2)cc1)C(=O)N(C)[C@@H](Cc1ccccc1)C(=O)NCCCN | 25 ng/mL | 130% | 6 nM | –
CN(C(=O)/C=C/CC(C)(C)N)[C@@H](Cc1ccc(-c2ccccc2)cc1)C(=O)N(C)[C@@H](Cc1ccccc1)C(=O)NCCCCCCN | 80 ng/mL | 130% | 1 nM | –
CN(C(=O)/C=C/CC(C)(C)N)[C@@H](Cc1ccc(-c2ccccc2)cc1)C(=O)N(C)[C@@H](Cc1ccccc1)C(=O)NCCN | 62 ng/mL | 90% | 5 nM | –
CN(C(=O)/C=C/CC(C)(C)N)[C@@H](Cc1ccc2ccccc2c1)C(=O)N(C)[C@@H](Cc1ccccc1)C(=O)NCCCCCN=C(N)N | 49 ng/mL | 140% | 17 nM | –
CN(C(=O)/C=C/CC(C)(C)N)[C@@H](Cc1ccc(-c2ccccc2)cc1)C(=O)N(C)[C@@H](Cc1ccccc1)C(=O)NCCCCN | 91 ng/mL | 110% | 1 nM | –
CN(C)C(=O)CN(C)C(=O)[C@H](Cc1ccccc1)N(C)C(=O)[C@H](Cc1ccc2ccccc2c1)N(C)C(=O)/C=C/CC(C)(C)N | 48 ng/mL | 105% | 10 nM | –
CNC(=O)CCCN(C)C(=O)[C@H](Cc1ccccc1)N(C)C(=O)[C@H](Cc1ccc2ccccc2c1)N(C)C(=O)/C=C/CC(C)(C)N | 32 ng/mL | 100% | 30 nM | –
CN(C)C(=O)[C@H](CCCCN)NC(=O)[C@H](Cc1ccccc1)N(C)C(=O)[C@H](Cc1ccc2ccccc2c1)N(C)C(=O)/C=C/CC(C)(C)N | 105 ng/mL | 130% | 0.3 nM | –
CN(C)CCCN(C)C(=O)[C@H](Cc1ccccc1)N(C)C(=O)[C@H](Cc1ccc(-c2ccccc2)cc1)N(C)C(=O)/C=C/CC(C)(C)N | 50 ng/mL | 95% | 4 nM | –
CC(C)(N)C(=O)N[C@H](COCc1ccccc1)C(=O)N1CCC2(CC1)CN(S(C)(=O)=O)c1ccccc12 [IBUTAMOREN] | 60 ng/mL | 115% | 0.6 nM | 0.084 µmol/kg
CC(C)(N)C(=O)N[C@@H](Cc1c[nH]cn1)C(=O)N[C@H](Cc1ccc2ccccc2c1)C(=O)N[C@H](Cc1ccccc1)C(=O)N[C@@H](CCCCN)C(N)=O [IPAMORELIN] (H-[Aib]H[d2Nal][dF]K-NH2) | 54 ng/mL | 85% | – | 0.0023 µmol/kg
